The values that follow come from patent US5767261A, “Lepidopteran GABA gated chloride channel and nucleic acids encoding subunits thereof” (priority 1995, dated 1998).

For test [1], the target named is T1, Heliothis virescens cyclodiene resistant chloride channel (Heliothis virescens, UniProt O18468).
T1 construct: in vitro transcribed pIVY12 mRNA injected into Xenopus oocytes, homomeric channel
T1 sequence (O18468 30-496): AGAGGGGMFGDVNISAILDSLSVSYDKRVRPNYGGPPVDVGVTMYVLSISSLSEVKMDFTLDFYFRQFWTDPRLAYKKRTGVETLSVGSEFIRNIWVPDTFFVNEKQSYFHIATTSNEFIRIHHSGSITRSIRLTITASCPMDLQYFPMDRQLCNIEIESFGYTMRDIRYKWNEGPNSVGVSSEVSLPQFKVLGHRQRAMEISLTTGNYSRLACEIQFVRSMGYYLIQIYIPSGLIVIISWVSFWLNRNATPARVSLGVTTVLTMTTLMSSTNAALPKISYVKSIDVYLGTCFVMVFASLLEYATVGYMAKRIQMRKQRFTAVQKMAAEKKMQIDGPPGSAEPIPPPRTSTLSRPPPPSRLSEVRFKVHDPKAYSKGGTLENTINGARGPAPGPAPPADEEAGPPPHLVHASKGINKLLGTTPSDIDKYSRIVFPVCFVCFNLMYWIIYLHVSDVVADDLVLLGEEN
Nature of the test: Two-electrode voltage clamp recordings of Xenopus oocytes injected with pIVY12 mRNA. The class given is cell-based. The following applies: for gross effect of known agonist / antagonist on the channel: similar assays. The method, then: (§1) Messenger RNA was produced from the cDNA template of pIVY12 described in Example I by in vitro transcription with the Ambion mMESSAGE mMACHINE IN VITRO TRANSCRIPTION KIT™ (Ambion, Inc.) The mRNA was injected into oocytes by the following procedure.
(§2) Frogs were anesthetized in a 2 gram/liter solution of 3-amino benzoic acid ethyl ester for thirty minutes, after which oocytes were surgically removed from the abdominal cavity. Follicles were digested by collagenase treatment under sterile conditions by standard methods. Oocytes were injected with 50 nl of mRNA by glass electrodes.
(§3) Following a 24 to 48 hour incubation, two-electrode voltage clamp recordings were made. Recordings were made using a Dagan TEV200 voltage clamp interfaced with a MacLab4 data acquisition system running the MacLab Chart data acquisition/analysis software. Oocytes were positioned under a dissecting scope under constant perfusion with ND-96 standard saline using a Razel syringe perfusion pump, model A99-FY at 93.9 cc/hr. Glass electrodes (A-M Systems, Inc., 1.5 mm×0.86 mm) were filled with 3M KCl and resistance ([…]) was measured to be between 0.7 and 1.5 mega ohms. Both electrodes were inserted into the oocyte at opposite sides, the resting potential was recorded and the voltage clamp turned on. Oocytes were held at a resting potential between -70 and -50 mV. Control responses of GABA were obtained by stopping the perfusion of saline and perfusing with a known concentration of GABA in ND-96 with 0.1% DMSO. The average of several GABA applications was taken as the maximal chloride current for that particular GABA dose. The effect of 10 micromolar GABA on the lepidopteran GABA gated chloride channel expressed in Xenopus oocytes is depicted in FIG. 4. […] In particular, the Heliothis virescens cyclodiene resistant chloride channel is about ten times less sensitive to block by fipronil than the Drosophila Rdl chloride channel.
A general note: Two-electrode voltage clamp holds a large cell at a set potential and records current.

In test [2] the target is T2, Heliothis virescens cyclodiene resistant GABA gated chloride channel (Heliothis virescens, UniProt O18468).
T2 sequence (O18468 30-496): T1 sequence (O18468 30-496)
In words: Whole cell voltage clamp recordings of Sf9 cells infected with recombinant baculovirus Elise13. The class given is cell-based. The following applies: 1×10^-3 M GABA, thirty hours post infection, FIG. 3. From the text: A BamHI/XhoI DNA fragment from plasmid pIVY12 described in Example 1 containing the complete coding sequence of the Heliothis virescens cyclodiene resistant GABA gated chloride channel subunit was cloned into the baculovirus transfer vector pBacPac8 (Clontech). The resulting vector, pIVY13, contains cDNA encoding the Heliothis virescens cyclodiene resistant GABA gated chloride channel subunit under the control of the polyhedrin promoter. The 8.0 kb vector, PIVY13, consists of the Heliothis sequence of pIVY12 cloned into the BamHI/XhoI site of pBacPac8 and is depicted in FIG. 2. Spodoptera frugiperda 9 (Sf9) cells were cotransfected by pIVY13 and wild type Autographa californica nuclear polyhedrosis virus (AcMNPV) using the lipofectin procedure. In transfer vector pIVY13, flanking AcMNPV sequences allowed recombination with the viral DNA, thus resulting in the transfer of the expression cassette of the Heliothis cDNA and the polyhedrin promoter to the polyhedrin locus of the viral DNA. The recombinant virus thus generated was designated Elise13. Viral stocks of Elise13 were generated by standard procedures described by O'Reilly et al. (1992) Baculovirus Expression Vectors, A Laboratory Manual, W. H. Freeman and Company. Sf9 cells were infected with Elise13 at a multiplicity of infection of 5 plaque forming units (PFU) per cell by standard procedures. […]

For test [3], the target named is T3, Heliothis GABA gated chloride channel (Heliothis virescens, UniProt O18468).
T3 sequence (O18468 30-496): T1 sequence (O18468 30-496)
Nature of the test: Whole cell patch clamp recordings of permanently transformed Drosophila SH1 cell lines (pIVY17). It is filed as cell-based. The following applies: SH1 cells, induced by 10 μM cadmium chloride for 48 hours, FIG. 7. An excerpt: To verify that expression of cDNA encoding the GABA gated chloride channel subunit results in production of a functional GABA gated chloride channel, hole cell voltage clamp recordings were made at thirty hours post infection. […] The results presented in this example indicate that expression of DNA encoding a lepidopteran GABA gated chloride channel subunit in Sf9 cells results in a functional GABA gated chloride channel.
Drosophila cell line SH1 was transformed with plasmid pIVY17 using lipofectin obtained from GIBCO-BRL following the manufacturer's instructions. Selection of insect cell transformants was accomplished with hygromycin at a concentration of 200 μg/ml. The Heliothis GABA gated chloride channel expression was induced by 10 μM cadmium chloride added to the growth medium for 48 hours prior to electrophysiological readings. Whole cell voltage patch clamping recordings were performed on a number of cell lines as described in Example III.
In general terms: Patch clamp records ionic current or voltage across a cell membrane.

The subject of test [4] is Heliothis virescens cyclodiene resistant chloride channel. In words: Two-electrode voltage clamp recordings of Xenopus oocytes injected with pIVY12 mRNA. It is filed as cell-based. The following applies: agonized by GABA. On the procedure: as §1, §2, §3
The target in test [5] is T4, Drosophila Rdl chloride channel (Drosophila melanogaster, UniProt P25123).
T4 sequence (P25123 45-606): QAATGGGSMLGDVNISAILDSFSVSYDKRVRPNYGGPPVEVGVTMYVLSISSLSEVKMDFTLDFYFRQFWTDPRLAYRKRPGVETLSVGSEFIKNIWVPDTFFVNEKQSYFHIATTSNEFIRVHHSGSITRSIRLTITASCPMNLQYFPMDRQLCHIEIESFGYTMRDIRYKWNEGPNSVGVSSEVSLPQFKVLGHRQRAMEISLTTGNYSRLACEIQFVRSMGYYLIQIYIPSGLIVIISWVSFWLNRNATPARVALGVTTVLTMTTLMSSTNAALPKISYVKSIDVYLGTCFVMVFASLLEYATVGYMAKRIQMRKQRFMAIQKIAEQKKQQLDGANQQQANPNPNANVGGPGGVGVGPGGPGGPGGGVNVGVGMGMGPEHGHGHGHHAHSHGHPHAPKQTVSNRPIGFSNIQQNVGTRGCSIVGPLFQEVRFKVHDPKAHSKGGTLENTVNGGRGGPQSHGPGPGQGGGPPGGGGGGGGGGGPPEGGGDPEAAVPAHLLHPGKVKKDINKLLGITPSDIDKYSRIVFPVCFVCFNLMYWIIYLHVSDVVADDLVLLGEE
The following applies: 10 micromoles of picrotoxinin; cited from earlier work.

Structures are written as SMILES.

For the molecule `NCc1cc(=O)[nH]o1` [muscimol], the “gross effect of known agonist / antagonist on the channel” value in test [1] is on record as “exhibited the predicted gross effects”.

On to `NCCCC(=O)O` [GABA, gamma-amino butyric acid], for which the “functional effect on the GABA gated chloride channel (flux of chloride ion)” value in test [2] is reported as “exhibits the gross functional effect on the GABA gated chloride channel”; in test [3], “exhibits the predicted gross functional effect”. In addition, in test [1] (10 micromolar GABA, FIG. 4), the “functional effect on the GABA gated chloride channel” value was “exhibits the predicted gross functional effect”.

In the case of `C=C(C)[C@@H]1[C@H]2OC(=O)[C@@H]1[C@]1(O)C[C@H]3O[C@]34C(=O)O[C@H]2[C@]14C` [picrotoxinin], in test [1] (10 micromoles of picrotoxinin), the “block of the Heliothis channel” value is given as “fifty”. In addition, in test [1], the “gross effect of known agonist / antagonist on the channel” value is listed as “exhibited the predicted gross effects”. Moreover, in test [4], the “reduction of sensitivity to block relative to Drosophila Rdl chloride channel” value is “more than 100 times”. Moreover, the “block of Drosophila Rdl” value in test [5] was “nearly complete block”.

For the molecule `N#Cc1nn(-c2c(Cl)cc(C(F)(F)F)cc2Cl)c(N)c1[S+]([O-])C(F)(F)F` (stereo not drawn) [fipronil], in test [4], the “reduction of sensitivity to block relative to Drosophila Rdl chloride channel” value is given as “about ten”.
